From patent US20250382274A1, “COMPOSITIONS AND METHODS FOR THE TREATMENT OF PARKINSON'S AND GAUCHER DISEASE” (CHILDREN'S HOSPITAL MEDICAL CENTER, priority 2024, published 2025)
Where a chain is given by its changes, count along the chain named.

Columns and labels:
[1] = target: T1, GCase (purified enzyme, Velaglucerase alfa, VPRIV) (Homo sapiens, UniProt P04062); test: GCase AC50 enzyme activity assay; type: biochemical; conditions: pH 5.6, 4-MuGlu substrate, compounds 0-40 μM
T1 construct: purchased Shire Human Genetic Therapies, Cambridge, MA
T1 sequence (P04062 40-536): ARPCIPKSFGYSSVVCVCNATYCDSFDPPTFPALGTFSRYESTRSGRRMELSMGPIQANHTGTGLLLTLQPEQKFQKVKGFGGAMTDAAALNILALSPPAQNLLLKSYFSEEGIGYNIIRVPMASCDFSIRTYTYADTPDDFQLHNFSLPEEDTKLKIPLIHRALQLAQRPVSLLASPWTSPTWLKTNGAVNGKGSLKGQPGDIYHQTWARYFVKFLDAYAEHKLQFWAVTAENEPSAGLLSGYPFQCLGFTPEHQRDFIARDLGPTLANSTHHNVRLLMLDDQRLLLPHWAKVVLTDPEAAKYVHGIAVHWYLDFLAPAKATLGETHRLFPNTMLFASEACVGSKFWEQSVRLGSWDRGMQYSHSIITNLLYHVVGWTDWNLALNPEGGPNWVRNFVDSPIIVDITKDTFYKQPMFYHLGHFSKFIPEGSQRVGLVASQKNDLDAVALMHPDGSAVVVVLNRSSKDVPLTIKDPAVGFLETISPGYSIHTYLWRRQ
Procedure: An in vitro enzyme assay was performed through a dose response curve of Compounds (0-40 μM) with purified enzyme (Velaglucerase alfa, VPRIV®, Shire Human Genetic Therapies, Cambridge, MA) in citric phosphate [0.025 mM] buffer (pH 5.6) where 4-MuGlu [4 mM] was the substrate. Compounds were pre-incubated with the enzyme for 40 minutes at room temperature prior to substrate addition, and then incubated at 37° C. for 1 hour. AC50 represents the concentration of a Compound that produces 50% of its maximal response in the in vitro GCase activity assay.
(§1) GCase activities were determined fluorometrically with 4-MuGlu. The relative fluorescence unit (RFU) of 4-MuGlu standard curve is generated with the plate reader (M5, Molecular Devise) as 1 n mole=56500 RFU. The human mutant Gaucher fibroblasts were purchased from Coriell Institute (Camden, NJ): N370/ΔGG (Cat #: GM00852) and L444P/L444P (cat #: GM00877)

[2] = target: T2, GCase N370S (N370/ΔGG human mutant Gaucher fibroblasts) (Homo sapiens, UniProt P04062, N409S); test: EC50 cell-based assay for GCase, mutant N370/ΔGG fibroblasts (GCase N370S); conditions: 5 days compound treatment (0-20 μM)
T2 construct: The human mutant Gaucher fibroblasts were purchased from Coriell Institute; host or cells: human Gaucher fibroblasts N370/ΔGG
T2 sequence (P04062 40-536 N409S): T1 sequence (P04062 40-536) with N370S
Procedure: (§2) In cell assays, GCase activity measurements were carried out on harvested cell pellets on the 5th day of Compound treatment. Healthy human fibroblasts (GCase cell), mutant N370/ΔGG (GCase N370S) or L444P/L444P (GCase L444P) were incubated with the Compound (0-20 μM) for 5 days with 15% fetal bovine serum (FBS) in Dulbecco's Modified Eagle Medium (DMEM) in 100 mm culture dishes. Fresh Medium with Compound were replaced every other day. On the 5th day of Compound treatment, harvested cell pellets were lysed with 1% Na-taurocholate (Tc) and 1% Triton X-100 (Tx), and mixed with the reaction buffer which contained 0.025 mM Citric phosphate buffer (pH 5.6), 0.25% Tc/Tx and 4 mM 4-MuGlu, then incubated at 37° C. for 1 hour. EC50 represents the concentration of a Compound that produces 50% of its maximal response in the cell-based GCase activity assay.
as §1

[3] = target: T3, GCase in healthy human fibroblasts (Homo sapiens, UniProt P04062); test: EC50 cell-based assay for GCase, healthy human fibroblasts (GCase cell); conditions: 5 days compound treatment (0-20 μM)
T3 construct: Healthy human fibroblasts (GCase cell); endogenous in cells; host or cells: healthy human fibroblasts
T3 sequence (P04062 40-536): T1 sequence (P04062 40-536)
Procedure: as §2, §1

[4] = target: T4, GCase L444P (L444P/L444P human mutant Gaucher fibroblasts) (Homo sapiens, UniProt P04062, L483P); test: EC50 cell-based assay for GCase, mutant L444P/L444P fibroblasts (GCase L444P); conditions: 5 days compound treatment (0-20 μM)
T4 construct: The human mutant Gaucher fibroblasts were purchased from Coriell Institute; host or cells: human Gaucher fibroblasts L444P/L444P
T4 sequence (P04062 40-536 L483P): T1 sequence (P04062 40-536) with L444P
Procedure: as §2, §1

O=C(COc1ccccc1C(=O)NCC1CCO1)Nc1ccc(Br)cc1 (centres unmarked) [Compound 2, 2-((4-bromophenylcarbamoyl)methoxy)-N-((oxetan-2-yl)methyl)benzamide]
AC50 [1]: < 10 µM
EC50 [2]: < 10 µM
EC50 [3]: 10 to 100 µM

O=C(Nc1ccc(Br)cc1)c1nc2cccc(C(=O)NCC3CCCO3)c2o1 (centres unmarked) [Compound 4, N2-(4-bromophenyl)-N7-((tetrahydrofuran-2-yl)methyl)benzo[d]oxazole-2,7-dicarboxamide]
AC50 [1]: < 10 µM
EC50 [2]: < 10 µM
EC50 [3]: < 10 µM

COc1ccc(NC(=O)c2nc3cccc(C(=O)NCC4CCCO4)c3o2)cc1 (centres unmarked) [Compound 8, N7-((tetrahydrofuran-2-yl)methyl)-N2-(4-methoxyphenyl)benzo[d]oxazole-2,7-dicarboxamide]
AC50 [1]: < 10 µM
EC50 [2]: < 10 µM
EC50 [3]: < 10 µM
EC50 [4]: < 10 µM

O=C(Nc1ccc(O)cc1)c1nc2cc(F)cc(C(=O)NCC3CCO3)c2o1 (centres unmarked) [Compound 26, 5-fluoro-N2-(4-hydroxyphenyl)-N7-(oxetan-2-ylmethyl)benzo[d]oxazole-2,7-dicarboxamide]
AC50 [1]: < 10 µM
EC50 [2]: < 10 µM
EC50 [3]: < 10 µM
EC50 [4]: < 10 µM

COc1ccc(NC(=O)C(C)(C)Oc2ccccc2C(=O)NCC2CCCO2)cc1 (centres unmarked) [Compound 32, 2-(2-(4-methoxyphenylcarbamoyl)propan-2-yloxy)-N-((tetrahydrofuran-2-yl)methyl)benzamide]
AC50 [1]: < 10 µM
EC50 [2]: 10 to 100 µM
EC50 [3]: < 10 µM

CC(C)(Oc1ccccc1C(=O)NCC1CCCO1)C(=O)NC1CCOCC1 (centres unmarked) [Compound 35, 2-[1,1-dimethyl-2-oxo-2-(tetrahydropyran-4-ylamino)ethoxy]-N-(tetrahydrofuran-2-ylmethyl)benzamide]
AC50 [1]: < 10 µM
EC50 [3]: < 10 µM

CC(C)(Oc1ccccc1C(=O)NCC1CCCO1)C(=O)NC1CCCCC1 (centres unmarked) [Compound 36, 2-[2-(cyclohexylamino)-1,1-dimethyl-2-oxo-ethoxy]-N-(tetrahydrofuran-2-ylmethyl)benzamide]
AC50 [1]: < 10 µM
EC50 [3]: < 10 µM

CC(C)(Oc1ccc(F)cc1C(=O)NCC1CCO1)C(=O)NC1CCC(F)(F)CC1 (centres unmarked) [Compound 38, 2-[2-[(4,4-difluorocyclohexyl)amino]-1,1-dimethyl-2-oxo-ethoxy]-5-fluoro-N-(oxetan-2-ylmethyl)benzamide]
AC50 [1]: < 10 µM
EC50 [3]: < 10 µM

CC1(C)CCC(NC(=O)C(C)(C)Oc2ccc(F)cc2C(=O)NCC2CCO2)CO1 (centres unmarked) [Compound 39, 2-[2-[(6,6-dimethyltetrahydropyran-3-yl)amino]-1,1-dimethyl-2-oxo-ethoxy]-5-fluoro-N-(oxetan-2-ylmethyl)benzamide]
AC50 [1]: < 10 µM
EC50 [3]: < 10 µM

O=C(NCC1CCO1)c1cccc2c1CN(C(=O)Nc1ccc(C(F)(F)F)cc1)C2 (centres unmarked) [Compound 40, N4-(oxetan-2-ylmethyl)-N2-[4-(trifluoromethyl)phenyl]isoindoline-2,4-dicarboxamide]
AC50 [1]: < 10 µM
EC50 [3]: < 10 µM

O=C(NCC1CCO1)c1cccc2c1CN(C(=O)NC1CCC(F)(F)CC1)C2 (centres unmarked) [Compound 41, N2-(4,4-difluorocyclohexyl)-N4-(oxetan-2-ylmethyl)isoindoline-2,4-dicarboxamide]
AC50 [1]: < 10 µM
EC50 [3]: < 10 µM

COc1ccc(NC(=O)N2Cc3cccc(C(=O)NCC4CCO4)c3C2)cc1Cl (centres unmarked) [Compound 42, N2-(3-chloro-4-methoxyphenyl)-N4-(oxetan-2-ylmethyl) isoindoline-2,4-dicarboxamide]
AC50 [1]: < 10 µM
EC50 [3]: < 10 µM

COc1ccc(NC(=O)N2Cc3cccc(C(=O)NCC4CCO4)c3C2)c(Cl)c1 (centres unmarked) [Compound 43, N2-(2-chloro-4-methoxyphenyl)-N4-(oxetan-2-ylmethyl)isoindoline-2,4-dicarboxamide]
AC50 [1]: 10 to 100 µM
EC50 [3]: < 10 µM

CNc1ccc(NC(=O)c2nc3cc(F)cc(C(=O)NCC4CCO4)c3o2)cc1 (centres unmarked) [Compound 44, 5-fluoro-N2-(4-(methylamino)phenyl)-N7-(oxetan-2-ylmethyl)benzo[d]oxazole-2,7-dicarboxamide]
AC50 [1]: < 10 µM
EC50 [3]: < 10 µM

COc1ccc(NC(=O)c2nc3cc(F)cc(C(=O)NCC4CCO4)c3o2)c(Cl)c1 (centres unmarked) [Compound 45, N2-(2-chloro-4-methoxyphenyl)-5-fluoro-N7-(oxetan-2-ylmethyl)benzo[d]oxazole-2,7-dicarboxamide]
AC50 [1]: < 10 µM
EC50 [3]: < 10 µM

COc1ccc(NC(=O)C(C)(C)Oc2ccc(F)cc2C(NCC2CCO2)C(F)(F)F)cc1 (centres unmarked) [Compound 46, 2-(4-fluoro-2-(2,2,2-trifluoro-1-((oxetan-2-ylmethyl)amino)ethyl)phenoxy)-N-(4-methoxyphenyl)-2-methylpropanamide]
AC50 [1]: < 10 µM
EC50 [3]: < 10 µM

O=C(Nc1ccc(OCF)cc1)c1nc2cc(F)cc(C(=O)NCC3CCO3)c2o1 (centres unmarked) [Compound 47, 5-fluoro-N2-[4-(fluoromethoxy)phenyl]-N7-(oxetan-2-ylmethyl)-1,3-benzoxazole-2,7-dicarboxamid]
AC50 [1]: < 10 µM
EC50 [3]: < 10 µM

COc1ccc(NC(=O)c2nc3cc(F)cc(C(=O)NCC4CCCO4)c3o2)cc1 (centres unmarked) [Compound 48, 5-fluoro-N2-(4-methoxyphenyl)-N7-(tetrahydrofuran-2-ylmethyl)-1,3-benzoxazole-2,7-dicarboxamide]
AC50 [1]: < 10 µM
EC50 [3]: < 10 µM

O=C(Nc1ccc(OC(F)(F)F)cc1)c1nc2cc(F)cc(C(=O)NCC3CC(F)CO3)c2o1 (centres unmarked) [Compound 49, 5-fluoro-N7-[(4-fluorotetrahydrofuran-2-yl)methyl]-N2-[4-(trifluoromethoxy)phenyl]-1,3-benzoxazole-2,7-dicarboxamide]
AC50 [1]: < 10 µM
EC50 [3]: < 10 µM

COc1ccc(NC(=O)c2ncc(CC(=O)NCC3CCO3)o2)cc1 (centres unmarked) [Compound 50, N-(4-methoxyphenyl)-5-(2-((oxetan-2-ylmethyl)amino)-2-oxoethyl)oxazole-2-carboxamide]
AC50 [1]: < 10 µM
EC50 [3]: < 10 µM
